Values of other authors in PMC3967229 (Marine Drugs, 2014).
Where two headings read alike, the source gives them in different places. Each block holds one molecule with its values, some of them ahead of it.

Experiments:
HCT116 tumor = settings: i.p.
MDA-MB-231 cells = system: MDA-MB-231 cells; parameters: method as in PMID 22543582; settings: 10 mg/kg/day, together with dexamethasone
[1] = mouse in vivo model
[2] = rabbit in vivo model
[3] = 5 mg/kg/day
[4] = protein-assisted mechanism
[5] = not given; remark: listed apart in the source
[6] = not given; remark: listed apart in the source
[7] = parameters: method as in earlier work

Molecule: CCCCCCCC(=O)SCC/C=C/[C@@H]1CC(=O)NCc2nc(cs2)C2=N[C@@](C)(CS2)C(=O)N[C@@H](C(C)C)C(=O)O1 [largazole]
Cellular activity: low-nanomolar | HCT116 tumor growth (HCT116 tumor; colon tumor xenograft mouse model): retarding HCT116 tumor growth | Acute toxicity (HCT116 tumor; up to the highest dose tested (50 mg/kg), mouse): without acute toxicity | Invasiveness of orthotopic MDA-MB-231 tumors (MDA-MB-231 cells): reducing the invasiveness | Bone-forming activity [1]: bone-forming activity | Bone-forming activity [2]: bone-forming activity | Liver fibrosis [3]: decreased liver fibrosis | Conversion to largazole thiol in mouse serum [4]: rapidly converted

Volume of distribution (Vdss) [5]: 22.3 L/kg
Molecule: C/C=C1\NC(=O)[C@H]2CSSCC/C=C/[C@H](CC(=O)N[C@H](C(C)C)C(=O)N2)OC(=O)[C@H](C(C)C)NC1=O [romidepsin]

Plasma protein binding, bound to human plasma [6]: 71.3% | Clearance [7]: 3.3 L/h/kg | Vdss [7]: 0.6 L/kg
Molecule: O=C(CCCCCCC(=O)Nc1ccccc1)NO [vorinostat, Suberoylanilide hydroxamic acid]
Cellular activity: micromolar

Molecule: largazole thiol
Potency against HDAC isoforms (HDACs 1, 2 and 3): subnanomolar
